Measured values taken from patent publication US20190064177A1, “INCORPORATING COMPETITIVE BINDING INFORMATION INTO MOLECULAR ARRAY ANALYSIS TO GENERATE FUNCTION NETWORKS OF INTERACTIONS” (ARIZONA BOARD OF REGENTS ON BEHALF OF ARIZONA STATE …, priority 2017, published 2019).

B1: … (peptide)
peptide: KEAPGPRFGGSG
B2: … (peptide)
peptide: YNRNAKSSGGSG
B3: … (peptide)
peptide: RFKYPLDGGSG
B4: … (peptide)
peptide: RLQYLFKSDGSG
B5: … (peptide)
peptide: YRFQSGLPAKDGSG
B6: … (peptide)
peptide: RWKYQKFNGGSG
B7: … (peptide)
peptide: KNRPYNKDLEDGSG
B8: … (peptide)
peptide: EDEGLSKFEGGSG
B9: … (peptide)
peptide: RQYQKHSYAKFSGSG
B10: … (peptide)
peptide: YSVDYWYQVDGSG
B11: … (peptide)
peptide: WRGFKFADGGSG

system: diaphorase; test: fluorescently labeled diaphorase binding to peptide array with or without excess FAD; conditions: 1 micromolar labeled diaphorase, excess FAD present; 65535 is detector saturation
Summary of the method: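 Fluorescently labeled diaphorase, at 1 and 10 micromolar, bound to an array of about 126,000 peptides (16 amino acids; C, I, M, T omitted; GSG linker), with or without excess FAD. Fluorescence per feature scanned; 65535 marks detector saturation.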

1 microM FAD (array fluorescence of bound diaphorase)	Molecule
9011	DLFQLVFSGSG [array peptide with C-terminal GSG linker]
3707.5	KPLAVQKVGSG (KPLAVQKVFGSG) [array peptide with C-terminal GSG linker]
3049	FGKLYQLYNDGSG [array peptide with C-terminal GSG linker]
3234.25	PRYSGQYGGSG [array peptide with C-terminal GSG linker]
2705.5	VLSLNQVYSEGSG [array peptide with C-terminal GSG linker]
8281.5	KEAPGPRFGGSG [array peptide with C-terminal GSG linker]
2304.25	VVQALFDGSG [array peptide with C-terminal GSG linker]
3436.25	NVSDLSQFYLSGSG [array peptide with C-terminal GSG linker]
4182.5	AFYGLELGGSG [array peptide with C-terminal GSG linker]
3089	AQVAVDGFYVDGSG [array peptide with C-terminal GSG linker]

same assay, conditions: 1 micromolar labeled diaphorase, no FAD; 65535 is detector saturation

1 micro no FAD (array fluorescence of bound diaphorase)	Molecule
5775	DLFQLVFSGSG [array peptide with C-terminal GSG linker]
34797.5	KPLAVQKVGSG (KPLAVQKVFGSG) [array peptide with C-terminal GSG linker]
1911.25	FGKLYQLYNDGSG [array peptide with C-terminal GSG linker]
8432.75	PRYSGQYGGSG [array peptide with C-terminal GSG linker]
1674.75	VLSLNQVYSEGSG [array peptide with C-terminal GSG linker]
1071.25	KEAPGPRFGGSG [array peptide with C-terminal GSG linker]
1467.5	VVQALFDGSG [array peptide with C-terminal GSG linker]
2144.5	NVSDLSQFYLSGSG [array peptide with C-terminal GSG linker]
2264.25	AFYGLELGGSG [array peptide with C-terminal GSG linker]
2012.5	AQVAVDGFYVDGSG [array peptide with C-terminal GSG linker]

same assay, conditions: 10 micromolar labeled diaphorase, excess FAD present; 65535 is detector saturation

10 microM FAD (array fluorescence of bound diaphorase)	Molecule
65535	DLFQLVFSGSG [array peptide with C-terminal GSG linker]
36814	KPLAVQKVGSG (KPLAVQKVFGSG) [array peptide with C-terminal GSG linker]
34155	FGKLYQLYNDGSG [array peptide with C-terminal GSG linker]
45157.75	PRYSGQYGGSG [array peptide with C-terminal GSG linker]
21822.25	VLSLNQVYSEGSG [array peptide with C-terminal GSG linker]
5467.5	KEAPGPRFGGSG [array peptide with C-terminal GSG linker]
21180.25	VVQALFDGSG [array peptide with C-terminal GSG linker]
27800.25	NVSDLSQFYLSGSG [array peptide with C-terminal GSG linker]
36729	AFYGLELGGSG [array peptide with C-terminal GSG linker]
22739.5	AQVAVDGFYVDGSG [array peptide with C-terminal GSG linker]

same assay, conditions: 10 micromolar labeled diaphorase, no FAD; 65535 is detector saturation

10 microM no FAD (array fluorescence of bound diaphorase)	Molecule
32672.5	DLFQLVFSGSG [array peptide with C-terminal GSG linker]
46161	KPLAVQKVGSG (KPLAVQKVFGSG) [array peptide with C-terminal GSG linker]
15703	FGKLYQLYNDGSG [array peptide with C-terminal GSG linker]
65535	PRYSGQYGGSG [array peptide with C-terminal GSG linker]
9853.75	VLSLNQVYSEGSG [array peptide with C-terminal GSG linker]
5614.5	KEAPGPRFGGSG [array peptide with C-terminal GSG linker]
9478.25	VVQALFDGSG [array peptide with C-terminal GSG linker]
6739	NVSDLSQFYLSGSG [array peptide with C-terminal GSG linker]
16544	AFYGLELGGSG [array peptide with C-terminal GSG linker]
12627	AQVAVDGFYVDGSG [array peptide with C-terminal GSG linker]

same assay, conditions: ratio of binding without FAD to binding with FAD, 1 micromolar diaphorase

1 microM noFAD/FAD	Molecule
0.6409	DLFQLVFSGSG [array peptide with C-terminal GSG linker]
9.386	KPLAVQKVGSG (KPLAVQKVFGSG) [array peptide with C-terminal GSG linker]
0.6268	FGKLYQLYNDGSG [array peptide with C-terminal GSG linker]
2.607	PRYSGQYGGSG [array peptide with C-terminal GSG linker]
0.619	VLSLNQVYSEGSG [array peptide with C-terminal GSG linker]
0.1294	KEAPGPRFGGSG [array peptide with C-terminal GSG linker]
0.6369	VVQALFDGSG [array peptide with C-terminal GSG linker]
0.6241	NVSDLSQFYLSGSG [array peptide with C-terminal GSG linker]
0.5414	AFYGLELGGSG [array peptide with C-terminal GSG linker]
0.6515	AQVAVDGFYVDGSG [array peptide with C-terminal GSG linker]

same assay, conditions: ratio of binding without FAD to binding with FAD, 10 micromolar diaphorase

10 microM noFAD/FAD	Molecule
0.4986	DLFQLVFSGSG [array peptide with C-terminal GSG linker]
1.254	KPLAVQKVGSG (KPLAVQKVFGSG) [array peptide with C-terminal GSG linker]
0.4598	FGKLYQLYNDGSG [array peptide with C-terminal GSG linker]
1.451	PRYSGQYGGSG [array peptide with C-terminal GSG linker]
0.4515	VLSLNQVYSEGSG [array peptide with C-terminal GSG linker]
1.027	KEAPGPRFGGSG [array peptide with C-terminal GSG linker]
0.4475	VVQALFDGSG [array peptide with C-terminal GSG linker]
0.2424	NVSDLSQFYLSGSG [array peptide with C-terminal GSG linker]
0.4504	AFYGLELGGSG [array peptide with C-terminal GSG linker]
0.5553	AQVAVDGFYVDGSG [array peptide with C-terminal GSG linker]

same assay, conditions: ratio without/with FAD calculated from measured binding values, 1 micromolar diaphorase

Meas. ratio	Molecule
0.64	DLFQLVFSGSG [array peptide with C-terminal GSG linker]
2.45	RVLPYHGWKWFSG
9.39	KPLAVQKVGSG (KPLAVQKVFGSG) [array peptide with C-terminal GSG linker]
0.63	FGKLYQLYNDGSG [array peptide with C-terminal GSG linker]
2.61	PRYSGQYGGSG [array peptide with C-terminal GSG linker]
0.75	FYNFGYQDLEDGS
0.62	VLSLNQVYSEGSG [array peptide with C-terminal GSG linker]
0.13	KEAPGPRFGGSG [array peptide with C-terminal GSG linker]
0.64	VVQALFDGSG [array peptide with C-terminal GSG linker]
0.62	NVSDLSQFYLSGSG [array peptide with C-terminal GSG linker]
0.54	AFYGLELGGSG [array peptide with C-terminal GSG linker]
2.06	YRWGAKHYGGSG [array peptide with C-terminal GSG linker]
0.65	AQVAVDGFYVDGSG [array peptide with C-terminal GSG linker]
1.74	YRRPWKFRDGSG [array peptide with C-terminal GSG linker]
2.56	YWRFYANWAQLFG

biological target: Diaphorase; test: peptide array, 1 uM labeled diaphorase, no FAD; conditions: not given

fluorescence	Molecule
1070	B1
4010	B2
5760	B3
5780	B4
4040	B5
10200	B6
733	B7
561	B8
6760	B9
1800	B10
5650	B11

biological target: Diaphorase; test: peptide array, 10 uM labeled diaphorase, no FAD; conditions: not given

fluorescence	Molecule
5610	B1
41300	B2
55900	B3
64300	B4
50300	B5
61300	B6
2520	B7
1220	B8
57200	B9
19800	B10
58900	B11

biological target: Diaphorase; test: peptide array, 1 uM labeled diaphorase, with FAD; conditions: not given

fluorescence	Molecule
8280	B1
1550	B2
2200	B3
1960	B4
1490	B5
3860	B6
5150	B7
4170	B8
2460	B9
10400	B10
2160	B11

biological target: Diaphorase; test: peptide array, 10 uM labeled diaphorase, with FAD; conditions: not given

fluorescence	Molecule
5470	B1
18600	B2
30400	B3
30600	B4
20200	B5
46200	B6
2590	B7
1380	B8
27300	B9
19200	B10
31500	B11

biological target: Diaphorase; test: peptide array, 1 uM diaphorase, binding without FAD / with FAD; conditions: not given

noFAD/FAD	Molecule
0.129	B1
2.6	B2
2.62	B3
2.94	B4
2.71	B5
2.63	B6
0.142	B7
0.135	B8
2.75	B9
0.173	B10
2.62	B11

biological target: Diaphorase; test: peptide array, 10 uM diaphorase, binding without FAD / with FAD; conditions: not given

noFAD/FAD	Molecule
1.03	B1
2.23	B2
1.84	B3
2.1	B4
2.49	B5
1.33	B6
0.974	B7
0.885	B8
2.1	B9
1.03	B10
1.87	B11
